In patent US10413610B2, “Liquid formulation” (Luoda Pharma Pty Ltd, priority 2012, dated 2019):

Key:
[1] = cited from earlier work
[2] = parameters: species or system dogs; details: dog, in vivo
Source text: The results for both IVPs 3 and 4 are consistent with this value.

Compound | effect of addition of HPβCD on aqueous solubility of pimobendan ([1]; pH between 3 and 5) | solubility at pH 7 ([1]; water, pH 7) [mg per 100 mL] | volume of water in which 1 g of pimobendan dissolves ([1]; water) | published AUC for benazeprilat scaled to a dose of 0.25 mg/kg [2] [ng/h/mL]
COc1ccc(-c2nc3ccc(C4=NNC(=O)CC4C)cc3[nH]2)cc1 (racemic) [pimobendan, (RS)-6-[2-(4-methoxyphenyl)-1H-benzimidazol-5-yl]-5-methyl-4,5-dihydropyridazin-3(2H)-one] | does not effectively increase the aqueous solubility | 0.1 | 10,000 mL | –
CCOC(=O)[C@H](CCc1ccccc1)N[C@H]1CCc2ccccc2N(CC(=O)O)C1=O [benazepril, Benazepril] | – | – | – | 114.9
